In paper PMC5400543, “Design, sythesis and evaluation of a series of 3- or 4-alkoxy substituted phenoxy derivatives as PPARs agonists” (Oncotarget, 2017):

Assays:
PPARγ [1] = biological target: T1, PPARγ (Homo sapiens, UniProt P37231); experiment: In vitro PPARγ transactivation assay (Gal4-hPPARγLBD luciferase reporter in 293E cells); details: 10^−5 M, 24 h, Csamples/Ccontrol, mean±SEM
T1 sequence (P37231 238-503 limits assumed): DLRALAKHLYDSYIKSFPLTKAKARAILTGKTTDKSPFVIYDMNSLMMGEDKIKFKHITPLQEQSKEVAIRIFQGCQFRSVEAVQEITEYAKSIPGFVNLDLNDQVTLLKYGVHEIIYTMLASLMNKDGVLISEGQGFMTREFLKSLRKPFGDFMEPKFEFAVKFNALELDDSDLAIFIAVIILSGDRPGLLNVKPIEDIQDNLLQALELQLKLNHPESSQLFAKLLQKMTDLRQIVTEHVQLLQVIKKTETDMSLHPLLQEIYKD

PPARα = biological target: T2, PPARα (Homo sapiens, UniProt Q07869); experiment: In vitro PPARα transactivation assay (Gal4-hPPARαLBD luciferase reporter in 293E cells); assay type: cell-based; details: 24 h; for PPARα Activation Fold: 10^−5 M, Csamples/Ccontrol, mean±SEM
T2 construct: pcDNA3.1-hPPARαLBD-Gal4DB; expressed in transfected cells; host or cells: 293E cells
T2 sequence (Q07869 239-466 limits assumed): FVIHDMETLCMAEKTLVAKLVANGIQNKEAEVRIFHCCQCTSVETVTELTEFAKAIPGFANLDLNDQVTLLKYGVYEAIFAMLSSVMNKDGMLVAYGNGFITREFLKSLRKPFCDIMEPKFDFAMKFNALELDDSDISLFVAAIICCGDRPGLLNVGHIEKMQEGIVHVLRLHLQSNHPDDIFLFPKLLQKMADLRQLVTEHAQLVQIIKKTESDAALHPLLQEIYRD

PPARγ [2] = biological target: T1, PPARγ
PPARγ [3] = biological target: T1, PPARγ; experiment: cell-based
PPARδ [4] = biological target: T3, PPARδ (Homo sapiens, UniProt Q03181); experiment: In vitro PPARδ transactivation assay (Gal4-hPPARδLBD luciferase reporter in 293E cells); details: for PPARδ Activation Fold: 10^−5 M, 24 h, Csamples/Ccontrol, mean±SEM; for Cmax: read-out: Cmax, concentration at maximum efficiency percentage (Max%), PPARδ, 24 h, multiple concentrations
T3 sequence (Q03181 211-439 limits assumed): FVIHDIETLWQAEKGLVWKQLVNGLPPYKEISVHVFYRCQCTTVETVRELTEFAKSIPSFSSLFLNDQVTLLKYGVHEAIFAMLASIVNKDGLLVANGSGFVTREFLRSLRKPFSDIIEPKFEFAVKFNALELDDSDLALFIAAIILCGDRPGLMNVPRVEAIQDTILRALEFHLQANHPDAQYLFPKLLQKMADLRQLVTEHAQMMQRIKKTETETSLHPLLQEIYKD

PPARδ [5] = biological target: T3, PPARδ; experiment: cell-based

c1cc(OCCn2c3ccccc3c3ccccc32)cc(OCc2nn[nH]n2)c1 [10h, 9-(2-(3-((2H-tetrazol-5-yl)methoxy)phenoxy)ethyl)-9H-carbazole]
PPARγ Activation Fold (PPARγ [1]): 26.81±1.56 | PPARα Activation Fold (PPARα): 0.81±0.02 | Cmax (PPARγ [2]): 30 µM | EC50 (PPARγ [3]): 6.97 µM | PPARδ Activation Fold (PPARδ [4]): 1.16±0.05

c1cc(OCCn2ccc3ccccc32)cc(OCc2nn[nH]n2)c1 [10g, 1-(2-(3-((2H-tetrazol-5-yl)methoxy)phenoxy)ethyl)-1H-indole]
PPARγ Activation Fold (PPARγ [1]): 2.83±0.49 | PPARα Activation Fold (PPARα): 0.90±0.05 | PPARδ Activation Fold (PPARδ [4]): 0.83±0.04

CC(C)(Oc1ccc(OCCCn2cnc3ccccc32)cc1)C(=O)O [6e, 2-(4-(3-(1H-benzo[d]imidazol-1-yl)propoxy)phenoxy)-2-methylpropanoic acid]
PPARγ Activation Fold (PPARγ [1]): 1.26±0.01 | PPARα Activation Fold (PPARα): 1.38±0.06 | EC50 (PPARδ [5]): 0.0111 µM | PPARδ Activation Fold (PPARδ [4]): 7.09±0.97 | Cmax (PPARδ [4]): 0.1 µM

c1cc(OCCCn2c3ccccc3c3ccccc32)cc(OCc2nn[nH]n2)c1 [10j, 9-(3-(3-((2H-tetrazol-5-yl)methoxy)phenoxy)propyl)-9H-carbazole]
PPARγ Activation Fold (PPARγ [1]): 0.69±0.01 | PPARα Activation Fold (PPARα): 0.65±0.00 | PPARδ Activation Fold (PPARδ [4]): 0.88±0.09

CC(C)(Oc1cccc(OCCCn2ccc3ccccc32)c1)C(=O)O [6h, 2-(3-(3-(1H-indol-1-yl)propoxy)phenoxy)-2-methylpropanoic acid]
PPARγ Activation Fold (PPARγ [1]): 1.57±0.25 | PPARα Activation Fold (PPARα): 3.81±0.83 | EC50 (PPARα; multiple concentrations): 5.3 µM | Cmax (PPARα; multiple concentrations, read-out: Cmax, concentration at maximum efficiency percentage (Max%), PPARα): 10 µM | PPARδ Activation Fold (PPARδ [4]): 0.78±0.15

CC(C)(Oc1ccc(OCCCn2c3ccccc3c3ccccc32)cc1)C(=O)O [6d, 2-(4-(3-(9H-carbazol-9-yl)propoxy)phenoxy)-2-methylpropanoic acid]
PPARγ Activation Fold (PPARγ [1]): 1.57±0.00 | PPARα Activation Fold (PPARα): 1.96±0.17 | PPARδ Activation Fold (PPARδ [4]): 1.13±0.03

c1ccc(CCCOc2ccc(OCc3nn[nH]n3)cc2)cc1 [10e, 5-((4-(3-Phenylpropoxy)phenoxy)methyl)-2H-tetrazole]
PPARγ Activation Fold (PPARγ [1]): 1.93±0.23 | PPARα Activation Fold (PPARα): 1.91±0.13 | PPARδ Activation Fold (PPARδ [4]): 1.26±0.15

c1ccc(CCCOc2cccc(OCc3nn[nH]n3)c2)cc1 [10k, 5-((3-(3-Phenylpropoxy)phenoxy)methyl)-2H-tetrazole]
PPARγ Activation Fold (PPARγ [1]): 1.46±0.20 | PPARα Activation Fold (PPARα): 0.74±0.09 | PPARδ Activation Fold (PPARδ [4]): 1.24±0.17

c1cc(OCCCn2ccc3ccccc32)cc(OCc2nn[nH]n2)c1 [10i, 1-(3-(3-((2H-tetrazol-5-yl)methoxy)phenoxy)propyl)-1H-indole]
PPARγ Activation Fold (PPARγ [1]): 1.19±0.09 | PPARα Activation Fold (PPARα): 0.89±0.19 | PPARδ Activation Fold (PPARδ [4]): 0.77±0.01

CC(C)(Oc1ccc(OCCn2ccc3ccccc32)cc1)C(=O)O [6a, 2-(4-(2-(1H-indol-1-yl)ethoxy)phenoxy)-2-methylpropanoic acid]
PPARγ Activation Fold (PPARγ [1]): 1.21±0.09 | PPARα Activation Fold (PPARα): 1.00±0.07 | PPARδ Activation Fold (PPARδ [4]): 0.97±0.09

c1cncc(COc2cccc(OCc3nn[nH]n3)c2)c1 [10l, 3-((3-((2H-tetrazol-5-yl)methoxy)phenoxy)methyl)pyridine]
PPARγ Activation Fold (PPARγ [1]): 1.07±0.03 | PPARα Activation Fold (PPARα): 1.15±0.06 | EC50 (PPARδ [5]): 0.0273 µM | PPARδ Activation Fold (PPARδ [4]): 9.56±2.50 | Cmax (PPARδ [4]): 0.1 µM

CC(C)(Oc1cccc(OCCn2c3ccccc3c3ccccc32)c1)C(=O)O [6g, 2-(3-(2-(9H-carbazol-9-yl)ethoxy)phenoxy)-2-methylpropanoic acid]
PPARγ Activation Fold (PPARγ [1]): 18.55±0.06 | PPARα Activation Fold (PPARα): 1.40±0.27 | Cmax (PPARγ [2]): 50 µM | EC50 (PPARγ [3]): 11.8 µM | PPARδ Activation Fold (PPARδ [4]): 1.28±0.11

c1ccc2c(c1)c1ccccc1n2CCOc1ccc(OCc2nn[nH]n2)cc1 [10b, 9-(2-(4-((2H-tetrazol-5-yl)methoxy)phenoxy)ethyl)-9H-carbazole]
PPARγ Activation Fold (PPARγ [1]): 1.26±0.22 | PPARα Activation Fold (PPARα): 0.55±0.03 | PPARδ Activation Fold (PPARδ [4]): 1.39±0.21

CC(C)(Oc1cccc(OCC(=O)c2ccccc2)c1)C(=O)O [6f, 2-Methyl-2-(3-(2-oxo-2-phenylethoxy)phenoxy)propanoic acid]
PPARγ Activation Fold (PPARγ [1]): 1.22±0.01 | PPARα Activation Fold (PPARα): 1.58±0.09 | PPARδ Activation Fold (PPARδ [4]): 1.27±0.09

CC(C)(Oc1ccc(OCCCn2ccc3ccccc32)cc1)C(=O)O [6c, 2-(4-(3-(1H-indol-1-yl)propoxy)phenoxy)-2-methylpropanoic acid]
PPARγ Activation Fold (PPARγ [1]): 1.40±0.18 | PPARα Activation Fold (PPARα): 1.78±0.10 | PPARδ Activation Fold (PPARδ [4]): 0.94±0.02

c1cncc(COc2ccc(OCc3nn[nH]n3)cc2)c1 [10f, 3-((4-((2H-tetrazol-5-yl)methoxy)phenoxy)methyl)pyridine]
PPARγ Activation Fold (PPARγ [1]): 1.24±0.07 | PPARα Activation Fold (PPARα): 0.80±0.02 | PPARδ Activation Fold (PPARδ [4]): 1.02±0.09

CC(C)(Oc1cccc(OCCCc2ccccc2)c1)C(=O)O [6k, 2-Methyl-2-(3-(3-phenylpropoxy)phenoxy)propanoic acid]
PPARγ Activation Fold (PPARγ [1]): 1.62±0.11 | PPARα Activation Fold (PPARα): 1.50±0.08 | PPARδ Activation Fold (PPARδ [4]): 0.99±0.22

c1ccc2c(c1)ccn2CCCOc1ccc(OCc2nn[nH]n2)cc1 [10c, 1-(3-(4-((2H-tetrazol-5-yl)methoxy)phenoxy)propyl)-1H-indole]
PPARγ Activation Fold (PPARγ [1]): 0.96±0.01 | PPARα Activation Fold (PPARα): 0.67±0.02 | PPARδ Activation Fold (PPARδ [4]): 1.01±0.08

CC(C)(Oc1cccc(OCCCn2c3ccccc3c3ccccc32)c1)C(=O)O [6i, 2-(3-(3-(9H-carbazol-9-yl)propoxy)phenoxy)-2-methylpropanoic acid]
PPARγ Activation Fold (PPARγ [1]): 2.87±0.33 | PPARα Activation Fold (PPARα): 1.32±0.22 | PPARδ Activation Fold (PPARδ [4]): 0.88±0.13

CC(C)(Oc1ccc(OCCCc2ccccc2)cc1)C(=O)O [6m, 2-Methyl-2-(4-(3-phenylpropoxy)phenoxy)propanoic acid]
PPARγ Activation Fold (PPARγ [1]): 2.26±0.18 | PPARα Activation Fold (PPARα): 2.01±0.22 | PPARδ Activation Fold (PPARδ [4]): 1.73±0.03

CC(C)(Oc1ccc(OCCn2c3ccccc3c3ccccc32)cc1)C(=O)O [6b, 2-(4-(2-(9H-carbazol-9-yl)ethoxy)phenoxy)-2-methylpropanoic acid]
PPARγ Activation Fold (PPARγ [1]): 1.19±0.00 | PPARα Activation Fold (PPARα): 0.80±0.00 | PPARδ Activation Fold (PPARδ [4]): 1.23±0.07

c1ccc2c(c1)c1ccccc1n2CCCOc1ccc(OCc2nn[nH]n2)cc1 [10d, 9-(3-(4-((2H-tetrazol-5-yl)methoxy)phenoxy)propyl)-9H-carbazole]
PPARγ Activation Fold (PPARγ [1]): 0.96±0.02 | PPARα Activation Fold (PPARα): 0.50±0.04 | PPARδ Activation Fold (PPARδ [4]): 1.15±0.22

CC(C)(Oc1ccc(OCC(=O)c2ccccc2)cc1)C(=O)O [6n, 2-Methyl-2-(4-(2-oxo-2-phenylethoxy)phenoxy)propanoic acid]
PPARγ Activation Fold (PPARγ [1]): 1.31±0.12 | PPARα Activation Fold (PPARα): 1.16±0.02 | PPARδ Activation Fold (PPARδ [4]): 1.24±0.06

c1ccc2c(c1)ccn2CCOc1ccc(OCc2nn[nH]n2)cc1 [10a, 1-(2-(4-((2H-tetrazol-5-yl)methoxy)phenoxy)ethyl)-1H-indole]
PPARγ Activation Fold (PPARγ [1]): 1.30±0.06 | PPARα Activation Fold (PPARα): 0.76±0.04 | PPARδ Activation Fold (PPARδ [4]): 1.28±0.06

CC(C)(Oc1cccc(OCCCn2cnc3ccccc32)c1)C(=O)O [6j, 2-(3-(3-(1H-benzo[d]imidazol-1-yl)propoxy)phenoxy)-2-methylpropanoic acid]
PPARγ Activation Fold (PPARγ [1]): 1.17±0.00 | PPARα Activation Fold (PPARα): 0.97±0.15 | PPARδ Activation Fold (PPARδ [4]): 0.86±0.03

CC(C)(Oc1cccc(OCc2cccnc2)c1)C(=O)O [6l, 2-Methyl-2-(3-(pyridin-3-ylmethoxy)phenoxy)propanoic acid]
PPARγ Activation Fold (PPARγ [1]): 1.34±0.01 | PPARα Activation Fold (PPARα): 1.39±0.21 | EC50 (PPARδ [5]): 0.0019 µM | PPARδ Activation Fold (PPARδ [4]): 6.60±0.90 | Cmax (PPARδ [4]): 0.1 µM

CC(C)(Oc1cccc(OCCn2ccc3ccccc32)c1)C(=O)O [6o, 2-(3-(2-(1H-indol-1-yl)ethoxy)phenoxy)-2-methylpropanoic acid]
PPARγ Activation Fold (PPARγ [1]): 3.01±0.16 | PPARα Activation Fold (PPARα): 1.01±0.11 | PPARδ Activation Fold (PPARδ [4]): 1.00±0.24
